Common to all, as to assay type: functional
Holding throughout (conditions): read-out: IZ

Test [1] relates to Staphylococcus aureus. In words: Antibacterial activity against Staphylococcus aureus at 100 ug/disk by agar plate disk diffusion method.
The test system of test [2] is Escherichia coli. In words: Antibacterial activity against Escherichia coli at 100 ug/disk by agar plate disk diffusion method. (A growth-free zone around the sample is the usual read-out of agar diffusion tests.)
For test [3], the system named is Proteus vulgaris. In words: Antibacterial activity against Proteus vulgaris at 100 ug/disk by agar plate disk diffusion method.
Test [4] has as its system Candida albicans. In words: Antifungal activity against Candida albicans at 100 ug/disk by agar plate disk diffusion method.
For test [5], the system named is Pseudomonas aeruginosa. Nature of the test: Antibacterial activity against Pseudomonas aeruginosa at 100 ug/disk by agar plate disk diffusion method.
The subject of test [6] is Aspergillus niger. In words: Antifungal activity against Aspergillus niger at 100 ug/disk by agar plate disk diffusion method.
The test system of test [7] is Aspergillus niger. Nature of the test: Antifungal activity against Aspergillus niger at 50 ug/disk by agar plate disk diffusion method.
Test [8] concerns Candida albicans. In words: Antifungal activity against Candida albicans at 50 ug/disk by agar plate disk diffusion method.
For test [9], the system named is Proteus vulgaris. Nature of the test: Antibacterial activity against Proteus vulgaris at 50 ug/disk by agar plate disk diffusion method.
Test [10] has as its system Pseudomonas aeruginosa. Nature of the test: Antibacterial activity against Pseudomonas aeruginosa at 50 ug/disk by agar plate disk diffusion method.
Test [11] concerns Staphylococcus aureus. In words: Antibacterial activity against Staphylococcus aureus at 50 ug/disk by agar plate disk diffusion method.
For test [12], the system named is Escherichia coli. In words: Antibacterial activity against Escherichia coli at 50 ug/disk by agar plate disk diffusion method.

We go through 11 molecules from ChEMBL document CHEMBL1153186, “In vitro antitubercular and antimicrobial activities of 1-substituted quinoxaline-2,3(1H,4H)-diones” (2010).

As for `CC(=O)n1c(=O)c(=O)[nH]c2ccccc21`, the zone of inhibition at 100 µg/disc in test [1] is 20 mm; in test [2], 24 mm; in test [3] it was 26 mm; in test [4], 0 mm; in test [5], 29 mm; in [6] it was 20 mm.

`O=c1[nH]c2ccccc2n(Cn2cnc3ccccc32)c1=O`: the zone of inhibition at 100 µg/disc was found to be 36 mm in test [1]; 33 mm in test [2]; 32 mm in [3]; 18 mm in test [4]; 35 mm in test [5]; 25 mm in test [6].

With `COc1cc(O)ccc1/C=C/C(=O)n1c(=O)c(=O)[nH]c2ccccc21`, the zone of inhibition at 100 µg/disc turned out to be 16 mm in [1]; 16 mm in test [2]; 18 mm in test [3]; 10 mm in test [4]; 18 mm in [5]; 16 mm in test [6].

For the molecule `O=c1[nH]c2ccccc2n(Cn2nnc3ccccc32)c1=O`, the zone of inhibition at 100 µg/disc in test [1] amounted to 29 mm; in test [2], 39 mm; in test [3] it was 34 mm; in test [4] it was 20 mm; in test [5], 39 mm; in test [6], 28 mm.

Consider `O=c1[nH]c2ccccc2n(CN(c2ccccc2)c2ccccc2)c1=O`, for which the zone of inhibition at 100 µg/disc amounted to 26 mm in [1]; 30 mm in test [2]; 30 mm in test [3]; 20 mm in [4]; 35 mm in [5]; 28 mm in test [6].

For `O=C1c2ccccc2C(=O)N1Cn1c(=O)c(=O)[nH]c2ccccc21`, the zone of inhibition at 100 µg/disc in [1] turned out to be 29 mm; in test [2] it was 30 mm; in [3], 31 mm; in test [4] it was 23 mm; in [5] it was 34 mm; in test [6], 23 mm.

Turning to `O=C(/C=C/c1ccccc1)n1c(=O)c(=O)[nH]c2ccccc21`, the zone of inhibition at 100 µg/disc in test [1] came out at 20 mm; in test [2], 26 mm; in test [3], 30 mm; in test [4], 18 mm; in test [5] it was 29 mm; in test [6], 24 mm.

As for `CN(C)c1ccc(/C=C/C(=O)n2c(=O)c(=O)[nH]c3ccccc32)cc1`, the zone of inhibition at 100 µg/disc in test [1] is 18 mm; in test [2], 33 mm; in test [3], 33 mm; in [4] it was 0 mm; in [5] it was 31 mm; in test [6], 0 mm.

`CC1=NNC(=O)C1Cn1c(=O)c(=O)[nH]c2ccccc21` (stereo not given): the zone of inhibition at 100 µg/disc worked out at 33 mm in [1]; 37 mm in [2]; 32 mm in [3]; 21 mm in test [4]; 39 mm in [5]; 23 mm in test [6].

For the molecule `Clc1ccccc1C(c1ccccc1)(c1ccccc1)n1ccnc1` [CLOTRIMAZOLE], the results for the zone of inhibition at 50 µg/disc in test [7] and in test [8] were 21 mm and 13 mm, respectively.

`CCn1cc(C(=O)O)c(=O)c2ccc(C)nc21` [NALIDIXIC ACID]: the zone of inhibition at 50 µg/disc in test [9] was 34 mm; in [10], 22 mm; in test [11], 24 mm; in [12], 25 mm.
